In patent US20070031394A1, “Method of treating neurological disorders” (priority 2005, published 2007):

Experiments:
Assay type in all cases: in vivo, human
essential tremor [1] = experiment: Riboflavin daily in 15 persons over 50 with essential tremor, Fahn-Tolosa-Marin clinical tremor rating; parameters: key to Tremor Score After Rx, L Hand / Tremor Score After Rx, Head / Tremor Score After Rx, R Hand / Tremor Score After Rx, Hands: 0=Normal; 1=Slight; 2=Moderately abnormal; 3=Markedly abnormal; 4=Severely abnormal; details: for Tremor Score After Rx, Hands: before Rx Hands 1
Experimental: (§1) 15 persons over the age of 50 were tested, utilizing daily dosages of between 400 and 800 mg of riboflavin. Riboflavin was the only vitamin used for those patients who were on other tremor medications. These patients were continued on them.
Patients were evaluated with arms outstretched, elbows bent and hands near the chin, writing with both hands, drinking holding a cup with either hand, and pouring water with either hand. Evaluation was based on a four-point scale as published by Fahn, Tolosa and Marin, Clinical Rating Scale for Tremor in Parkinson's Disease and Movement Disorders [Williams and Wilkins, 1993].

[2] = Side effects in the 15-person riboflavin test
Experimental: as §1

essential tremor [3] = experiment: One patient, sequential course of riboflavin with/without coenzyme Q10 and B vitamins, tremor score; parameters: key to tremor score, Head / tremor score, Right Hand / tremor score, Left Hand: 0=Normal; 1=Slight; 2=Moderately abnormal; 3=Markedly abnormal; 4=Severely abnormal
Experimental: For one patient, before beginning a course of therapy in accordance with the inventive treatment, that patient's tremor score was Head 0, Right Hand 2, Left Hand 3. Treatment commenced for three months as follows:
The tremor score, after three months of treatment, improved to Head 0, Right Hand 1, Left Hand 2. Treatment then continued for an additional three months with an increase in the daily dosage of Riboflavin to 800 mg. The tremor score was then measured to be Head 0, Right Hand 0, Left Hand 1. […] Moreover, if treatment was resumed, there was a return to reduced tremor levels after 2 to 3 days.

[4] = tested on: tremor on action and intention due to Depakote; seizures; experiment: One patient with severe epilepsy and Depakote-induced tremor treated with the inventive vitamin therapy; details: one patient with severe epilepsy on high dose Depakote
Text: Other conditions that are commonly seen in patients with essential tremor, such as deafness, motion sickness, balance difficulties, and cognitive problems may be benefited by this treatment. Additionally, patients who develop tremors due to the use of medications that cause tremor (such as Depakote and Lithium) may benefit by the use of the inventive vitamin therapy. […] Other neurological conditions, such as epilepsy, when associated with tremor, may be benefited by the inventive vitamin therapy.

essential tremor [5] = experiment: Riboflavin daily in 15 persons over 50 with essential tremor, Fahn-Tolosa-Marin clinical tremor rating; details: 200 mg to 1000 mg of riboflavin on a daily basis
[6] = after an additional three months with Riboflavin increased to 800 mg daily, same co-administered vitamins and coenzyme Q10

SMILES: Cc1cc2nc3c(=O)[nH]c(=O)nc-3n(C[C@H](O)[C@H](O)[C@H](O)CO)c2cc1C [Riboflavin, riboflavin]
- Tremor Score After Rx, Hands (essential tremor [1]; patient # 1, 400 mg daily, 6 wks., concomitant None): Hands 1
- Tremor Score After Rx, Head (essential tremor [1]; patient # 1, 400 mg daily, 6 wks., before Rx Head 2, concomitant tremor medications None): Head 1
- Tremor Score After Rx, Hands (essential tremor [1]; patient # 2, 600 mg daily, 3 mos., concomitant None): Hands 1
- Tremor Score After Rx, Head (essential tremor [1]; patient # 2, 600 mg daily, 3 mos., before Rx Head 2, concomitant None): Head 1
- Tremor Score After Rx, Head (essential tremor [1]; patient # 3, 400 mg daily, 4 wks., before Rx Head 0, concomitant None): Head 0
- Tremor Score After Rx, L Hand (essential tremor [1]; patient # 3, 400 mg daily, 4 wks., before Rx L Hand 4, concomitant None): L Hand 3
- Tremor Score After Rx, R Hand (essential tremor [1]; patient # 3, 400 mg daily, 4 wks., before Rx R Hand 3, concomitant None): R Hand 2
- Tremor Score After Rx, Head (essential tremor [1]; patient # 4, 800 mg daily, 2 wks., before Rx Head 0, concomitant None): Head 0
- Tremor Score After Rx, L Hand (essential tremor [1]; patient # 4, 800 mg daily, 2 wks., before Rx L Hand 3, concomitant None): L Hand 2
- Tremor Score After Rx, R Hand (essential tremor [1]; patient # 4, 800 mg daily, 2 wks., before Rx R Hand 2, concomitant None): R Hand 2
- Tremor Score After Rx, Head (essential tremor [1]; patient # 5, 400 mg daily, 7 mos., before Rx Head 0, concomitant Inderal LA 80 mg.): Head 0
- Tremor Score After Rx, L Hand (essential tremor [1]; patient # 5, 400 mg daily, 7 mos., before Rx L Hand 3, concomitant Inderal LA 80 mg.): L Hand 2
- Tremor Score After Rx, R Hand (essential tremor [1]; patient # 5, 400 mg daily, 7 mos., before Rx R Hand 2, concomitant Inderal LA 80 mg.): R Hand 2
- Tremor Score After Rx, Head (essential tremor [1]; patient # 6, 400 mg daily, 12 mos., before Rx Head 0, concomitant Inderal LA 60): Head 0
- Tremor Score After Rx, L Hand (essential tremor [1]; patient # 6, 400 mg daily, 12 mos., before Rx L Hand 2, concomitant Inderal LA 60): L Hand 1
- Tremor Score After Rx, R Hand (essential tremor [1]; patient # 6, 400 mg daily, 12 mos., before Rx R Hand 2, concomitant Inderal LA 60): R Hand 1
- Tremor Score After Rx, Head (essential tremor [1]; patient # 7, 400 mg daily, 4 wks., before Rx Head 0, concomitant None): Head 0
- Tremor Score After Rx, L Hand (essential tremor [1]; patient # 7, 400 mg daily, 4 wks., before Rx L Hand 2, concomitant None): L Hand 1
- Tremor Score After Rx, R Hand (essential tremor [1]; patient # 7, 400 mg daily, 4 wks., before Rx R Hand 2, concomitant None): R Hand 1
- Tremor Score After Rx, Head (essential tremor [1]; patient # 8, 600 mg daily, 4 wks., before Rx Head 0, concomitant Topamax): Head 0
- Tremor Score After Rx, L Hand (essential tremor [1]; patient # 8, 600 mg daily, 4 wks., before Rx L hand 4, concomitant Topamax): L Hand 3
- Tremor Score After Rx, R Hand (essential tremor [1]; patient # 8, 600 mg daily, 4 wks., before Rx R hand 4, concomitant Topamax): R Hand 3
- Tremor Score After Rx, Head (essential tremor [1]; patient # 9, 400 mg daily, 4 wks., before Rx Head 0, concomitant Mysoline, Inderal and Topamax): Head 0
- Tremor Score After Rx, L Hand (essential tremor [1]; patient # 9, 400 mg daily, 4 wks., before Rx L Hand 4, concomitant Mysoline, Inderal and Topamax): L hand 3
- Tremor Score After Rx, R Hand (essential tremor [1]; patient # 9, 400 mg daily, 4 wks., before Rx R Hand 4, concomitant Mysoline, Inderal and Topamax): R Hand 4
- Tremor Score After Rx, Head (essential tremor [1]; patient # 10, 800 mg daily, 4 mos., before Rx Head 0, concomitant Mysoline, Inderal and Topamax): Head 0
- Tremor Score After Rx, L Hand (essential tremor [1]; patient # 10, 800 mg daily, 4 mos., before Rx L Hand 3, concomitant Mysoline, Inderal and Topamax): L Hand 2
- Tremor Score After Rx, R Hand (essential tremor [1]; patient # 10, 800 mg daily, 4 mos., before Rx R Hand 4, concomitant Mysoline, Inderal and Topamax): R Hand 4
- Tremor Score After Rx, Head (essential tremor [1]; patient # 11, 400 mg daily, 1 year, before Rx Head 2, concomitant None): Head 1
- Tremor Score After Rx, L Hand (essential tremor [1]; patient # 11, 400 mg daily, 1 year, before Rx L Hand 2, concomitant None): L Hand 1
- Tremor Score After Rx, R Hand (essential tremor [1]; patient # 11, 400 mg daily, 1 year, before Rx R Hand 2, concomitant None): R Hand 1
- Tremor Score After Rx, Head (essential tremor [1]; patient # 12, 400 mg daily, 2 wks., before Rx Head not given, concomitant None): Head 2
- Tremor Score After Rx, L Hand (essential tremor [1]; patient # 12, 400 mg daily, 2 wks., before Rx L Hand not given, concomitant None): L Hand 2
- Tremor Score After Rx, R Hand (essential tremor [1]; patient # 12, 400 mg daily, 2 wks., before Rx R hand 2, concomitant None): R Hand 1
- Tremor Score After Rx, Head (essential tremor [1]; patient # 13, 400 mg daily, 3 wks., before Rx Head 0, concomitant None): Head 0
- Tremor Score After Rx, L Hand (essential tremor [1]; patient # 13, 400 mg daily, 3 wks., before Rx L Hand 2, concomitant None): L Hand 1
- Tremor Score After Rx, R Hand (essential tremor [1]; patient # 13, 400 mg daily, 3 wks., before Rx R Hand 2, concomitant None): R Hand 1
- Tremor Score After Rx, Head (essential tremor [1]; patient # 14, 400 mg daily, 5 mos., before Rx Head 0, concomitant None): Head 0
- Tremor Score After Rx, L Hand (essential tremor [1]; patient # 14, 400 mg daily, 5 mos., before Rx L Hand 2, concomitant None): L Hand 1
- Tremor Score After Rx, R Hand (essential tremor [1]; patient # 14, 400 mg daily, 5 mos., before Rx R Hand 2, concomitant None): R Hand 1
- Tremor Score After Rx, Head (essential tremor [1]; patient # 15, 400 mg daily, 1 mo., before Rx Head 0, concomitant None): Head 0
- Tremor Score After Rx, R Hand (essential tremor [1]; patient # 15, 400 mg daily, 1 mo., before Rx R Hand 1, concomitant None): R Hand 1
- symptoms after stopping daily intake (essential tremor [1]; within a few days of stopping the daily high dosage of riboflavin): the symptoms of essential tremor returned
- side effect ([2]; general statement on the treatment): bright yellow urine
- Side Effects ([2]; patient # 1, 400 mg daily, 6 wks.): None
- Side Effects ([2]; patient # 2, 600 mg daily, 3 mos.): None
- Side Effects ([2]; patient # 3, 400 mg daily, 4 wks.): None
- Side Effects ([2]; patient # 4, 800 mg daily, 2 wks.): None
- Side Effects ([2]; patient # 5, 400 mg daily, 7 mos., concomitant Inderal LA 80 mg.): None
- Side Effects ([2]; patient # 6, 400 mg daily, 12 mos., concomitant Inderal LA 60): None
- Side Effects ([2]; patient # 7, 400 mg daily, 4 wks.): None
- Side Effects ([2]; patient # 8, 600 mg daily, 4 wks., concomitant Topamax): None
- Side Effects ([2]; patient # 9, 400 mg daily, 4 wks., concomitant Mysoline, Inderal and Topamax): None
- Side Effects ([2]; patient # 10, 800 mg daily, 4 mos., concomitant Mysoline, Inderal and Topamax): None
- Side Effects ([2]; patient # 11, 400 mg daily, 1 year): None
- Side Effects ([2]; patient # 12, 400 mg daily, 2 wks.): None
- Side Effects ([2]; patient # 13, 400 mg daily, 3 wks.): None
- Side Effects ([2]; patient # 14, 400 mg daily, 5 mos.): None
- Side Effects ([2]; patient # 15, 400 mg daily, 1 mo.): None
- head and hand findings following treatment (essential tremor [3]; additional three months with just daily Riboflavin (800 mg) and coenzyme Q10 (1000 mg)): stable head and hand findings
- tremor score, Head (essential tremor [3]; [6]): 0
- tremor score, Left Hand (essential tremor [3]; [6]): 1
- tremor score, Right Hand (essential tremor [3]; [6]): 0
- tremor score, Head (essential tremor [3]; after three months of daily Riboflavin 400 mg + Coenzyme Q10 1000 mg + Thiamine 50 mg + Niacin 50 mg + Pantothenic Acid 50 mg, before Head 0): 0
- tremor score, Left Hand (essential tremor [3]; after three months of daily Riboflavin 400 mg + Coenzyme Q10 1000 mg + Thiamine 50 mg + Niacin 50 mg + Pantothenic Acid 50 mg, before Left Hand 3): 2
- tremor score, Right Hand (essential tremor [3]; after three months of daily Riboflavin 400 mg + Coenzyme Q10 1000 mg + Thiamine 50 mg + Niacin 50 mg + Pantothenic Acid 50 mg, before Right Hand 2): 1
- head and hand findings (essential tremor [3]; thereafter a year with just Riboflavin 800 mg daily): stable head and hand findings
- tremor when treatment was missed (essential tremor [3]; treatment missed for two days or more): prior untreated levels of tremor returned
- seizure frequency [4]: decreased
- tremor on action and intention [4]: significantly improved
- effect on symptoms of essential tremor (essential tremor [5]): ameliorates the symptoms of essential tremor
